This passage reports IC50 results from US8623885B2, “Fused tricyclic dual inhibitors of CDK 4/6 and FLT3” (Amgen Inc., priority 2011, dated 2014).

Usually IC50 stands for the midpoint of a concentration-inhibition curve.

The target in assay [1] is FLT3 enzyme (GST-FLT3 fusion) (Homo sapiens (Human), UniProt P36888). Kind of assay: FLT3 HTRF kinase assay. The format is biochemical. As to conditions: 116 μM ATP. As to the method:
The FLT3 inhibitory activity of the CDK4/6-FLT3 inhibitors was determined with a HTRF kinase assay. The FLT3 enzyme (GST-FLT3 fusion) was purchased from Carna Biosciences. An ULight-labeled synthetic peptide derived from human Janus kinase 1 (aa1015-1027, ULight-JAK1, PerkinElmer) was utilized as the phosphoacceptor substrate. The assay was conducted in a 384-well white OptiPlate (PerkinElmer). The 20 μL reaction mixture contained 50 nM ULight-JAK1, 116 μM ATP, 0.0385 ng/μL FLT3 and dilutions of test compounds in the kinase buffer (50 mM Hepes, pH 7.6, 1 mM EGTA, 10 mM MgCl2, 2 mM DTT, and 0.005% Tween 20). The reaction was allowed to proceed for 1 hour at room temperature and was stopped by adding 20 μL of 10 mM EDTA, 2 nM LANCE® Eu-W1024 anti-phospho-tyrosine antibody in LANCE® detection buffer (PerkinElmer). The plates were incubated at room temperature for 2 hours after addition of detection reagents and then read on an Envision multimode reader (PerkinElmer).
(§1) IC50 values of the compounds in the above assays were determined by non-linear regression analysis using Prism (GraphPad Software).
(In general: TR-FRET usually uses a lanthanide donor and a delayed reading to cut background.)

The target in another assay is CDK4/Cyclin D1 (Homo sapiens (Human), UniProt P11802). The assay can be described thus: CDK4 filtration kinase assay. Type of assay: biochemical. As to conditions: CDK4/Cyclin D1, Rb fragment substrate, [33P]-ATP filtration assay. As to the method: The CDK4 and CDK1 inhibitory activity of the CDK4/6-FLT3 inhibitors was determined with a filtration kinase assay. The compounds, kinase and substrate diluted in the kinase buffer (20 mM Tris, pH7.4, 50 mM NaCl, 1 mM DTT, 0.1% BSA) were sequentially added to a 96-well Multiscreen HTS filtration plate (Millipore). The final 100 μL reaction mixture in each well contained 0.3 μg of CDK4/Cyclin D1 or CDK1/Cyclin B (Cell Signaling Technology), 1 μg of Rb fragment (aa773-928, Millipore) for the CDK4 assay or 5 μg of histone H1 for the CDK1 assay and 1 μCi of [^33P]-ATP. The mixture was incubated at room temperature for 1 hour. The proteins in the reaction were then precipitated and washed with cold TCA solution using an aspiration/filtration vacuum system. The plates were dried at room temperature, and the retained radioactivity was measured by scintillation counting.
as §1

In a further assay the test system is MOLM13 cells. Kind of assay: [14C]-thymidine incorporation cell proliferation assay, MOLM13. The format is cell-based, human. The note with it: Homo sapiens, MOLM-13, 72 hour incubation. As to the method: The cell proliferation inhibition potency of the CDK4/6-FLT3 inhibitors was determined by using a [^14C]-thymidine incorporation assay. Exponentially growing cells (MOLM-13, Colo-205, etc.) were seeded in a 96-well Cytostar T plate (GE Healthcare Biosciences) at a density of 5×10^3 cells/well and incubated overnight. Serially diluted compounds and 0.1 μCi of [^14C]-thymidine (GE Healthcare Biosciences) were added to each well on the following day. After 72 hour incubation, isotope incorporation was determined with a β plate counter (Wallac). MOLM13 is a human AML tumor cell line expressing FLT3, FLT3^ITD and wild type Rb.
as §1
In general terms: Uptake of a labelled nucleoside into DNA is a usual measure of proliferation.

CDK4/Cyclin D1, sequence (P11802 whole entry, the tested form may be a part): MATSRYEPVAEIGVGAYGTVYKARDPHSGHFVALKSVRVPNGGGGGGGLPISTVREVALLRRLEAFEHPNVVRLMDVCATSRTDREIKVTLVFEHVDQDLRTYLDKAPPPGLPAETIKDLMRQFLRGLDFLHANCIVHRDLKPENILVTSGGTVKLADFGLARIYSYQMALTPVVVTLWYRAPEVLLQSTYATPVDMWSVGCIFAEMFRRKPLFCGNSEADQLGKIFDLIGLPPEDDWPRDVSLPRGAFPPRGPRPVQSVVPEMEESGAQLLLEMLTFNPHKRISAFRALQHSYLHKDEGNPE
CDK4/Cyclin D1, sequence (P24385 whole entry partner, the tested form may be a part): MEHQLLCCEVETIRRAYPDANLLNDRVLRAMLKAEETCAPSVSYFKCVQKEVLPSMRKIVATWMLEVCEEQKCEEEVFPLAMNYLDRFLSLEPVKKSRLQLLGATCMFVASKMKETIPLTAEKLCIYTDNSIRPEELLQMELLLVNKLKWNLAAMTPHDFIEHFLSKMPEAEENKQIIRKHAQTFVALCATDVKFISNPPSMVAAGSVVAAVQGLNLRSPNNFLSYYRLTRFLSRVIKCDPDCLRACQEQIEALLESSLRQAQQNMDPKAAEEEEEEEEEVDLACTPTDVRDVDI
FLT3 enzyme (GST-FLT3 fusion), sequence (P36888 27-993): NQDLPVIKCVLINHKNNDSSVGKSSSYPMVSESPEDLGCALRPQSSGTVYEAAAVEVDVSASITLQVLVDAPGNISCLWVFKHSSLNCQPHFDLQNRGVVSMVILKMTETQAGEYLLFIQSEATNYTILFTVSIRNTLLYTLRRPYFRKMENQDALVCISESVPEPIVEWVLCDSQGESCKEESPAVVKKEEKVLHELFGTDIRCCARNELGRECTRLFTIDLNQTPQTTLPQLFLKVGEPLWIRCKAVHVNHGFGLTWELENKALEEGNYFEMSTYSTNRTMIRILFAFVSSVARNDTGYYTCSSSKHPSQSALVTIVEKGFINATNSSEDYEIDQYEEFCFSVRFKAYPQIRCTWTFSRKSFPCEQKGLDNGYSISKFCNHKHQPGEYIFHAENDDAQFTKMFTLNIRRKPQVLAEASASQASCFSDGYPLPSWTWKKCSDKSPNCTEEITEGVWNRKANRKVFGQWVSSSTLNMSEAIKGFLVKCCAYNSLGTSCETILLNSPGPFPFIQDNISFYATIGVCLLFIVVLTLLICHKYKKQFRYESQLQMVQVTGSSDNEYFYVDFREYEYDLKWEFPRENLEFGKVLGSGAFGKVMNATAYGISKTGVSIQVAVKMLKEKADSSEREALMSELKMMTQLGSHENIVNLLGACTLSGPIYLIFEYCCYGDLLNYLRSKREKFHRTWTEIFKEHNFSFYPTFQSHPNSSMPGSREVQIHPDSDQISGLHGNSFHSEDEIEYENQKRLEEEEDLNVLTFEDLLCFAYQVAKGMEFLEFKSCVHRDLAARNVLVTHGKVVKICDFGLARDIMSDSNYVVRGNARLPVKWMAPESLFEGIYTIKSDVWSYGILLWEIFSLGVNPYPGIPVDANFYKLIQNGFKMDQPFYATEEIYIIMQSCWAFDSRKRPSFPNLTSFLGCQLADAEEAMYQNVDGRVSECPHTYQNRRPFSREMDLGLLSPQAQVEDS

For the compound `C[C@H]1CC[C@H](n2c3cnccc3c3cnc(Nc4ccc5c(n4)CCN(CCCO)C5)nc32)CC1` [Example 4, 3-(2-((9-((1r,4r)-4-Methylcyclohexyl)-9H-pyrido[4′,3′:4,5]pyrrolo[2,3-d]pyrimidin-2-yl)amino)-7,8-dihydro-1,6-naphthyridin-6(5H)-yl)propan-1-ol], the IC50 in assay [1] worked out at 2 nM; against CDK4/Cyclin D1 it was 4.6 nM; with MOLM13 cells, 21.1 nM.

Consider `C[C@H]1CC[C@H](n2c3cnccc3c3cnc(Nc4ccc5c(n4)CCN(C(=O)C(=O)O)C5)nc32)CC1` [Example 6, 2-(2-((9-((1r,4r)-4-Methylcyclohexyl)-9H-pyrido[4′,3′:4,5]pyrrolo[2,3-d]pyrimidin-2-yl)amino)-7,8-dihydro-1,6-naphthyridin-6(5H)-yl)-2-oxoacetic acid], for which the IC50 in assay [1] came to 3.3 nM; at CDK4/Cyclin D1 it was 120 nM; in the assay with MOLM13 cells, 46 nM.

Consider `CS(=O)(=O)CCN1CCc2nc(Nc3ncc4c5ccncc5n([C@H]5CC[C@H](C)CC5)c4n3)ccc2C1` [Example 8, 9-((1r,4r)-4-Methylcyclohexyl)-N-(6-(2-(methylsulfonyl)ethyl)-5,6,7,8-tetrahydro-1,6-naphthyridin-2-yl)-9H-pyrido[4′,3′:4,5]pyrrolo[2,3-d]pyrimidin-2-amine], for which the IC50 in assay [1] came to 36.1 nM; on CDK4/Cyclin D1, 2.4 nM; in the assay on MOLM13 cells, 9.1 nM.

In the case of `C[C@H]1CC[C@H](n2c3cnccc3c3cnc(Nc4ccc5c(n4)CCN(CCF)C5)nc32)CC1` [Example 9, N-(6-(2-Fluoroethyl)-5,6,7,8-tetrahydro-1,6-naphthyridin-2-yl)-9-((1r,4r)-4-methylcyclohexyl)-9H-pyrido[4′,3′:4,5]pyrrolo[2,3-d]pyrimidin-2-amine], the IC50 in assay [1] turned out to be 3.4 nM; against CDK4/Cyclin D1, 72.8 nM; in the assay on MOLM13 cells, 64.9 nM.

Consider `COCCN1CCc2nc(Nc3ncc4c5ccncc5n([C@H]5CC[C@H](C)CC5)c4n3)ccc2C1` [Example 10, N-(6-(2-Methoxyethyl)-5,6,7,8-tetrahydro-1,6-naphthyridin-2-yl)-9-((1r,4r)-4-methylcyclohexyl)-9H-pyrido[4′,3′:4,5]pyrrolo[2,3-d]pyrimidin-2-amine], for which the IC50 in assay [1] was 1.7 nM; against CDK4/Cyclin D1, 10.5 nM; with MOLM13 cells it was 33.2 nM.

For `C[C@H]1CC[C@H](n2c3cnccc3c3cnc(Nc4cc5c(cn4)CCNC5)nc32)CC1` [Example 11, 9-((1r,4r)-4-Methylcyclohexyl)-N-(5,6,7,8-tetrahydro-2,6-naphthyridin-3-yl)-9H-pyrido[4′,3′:4,5]pyrrolo[2,3-d]pyrimidin-2-amine], the figures for the 50% inhibitory concentration (IC50) (in assay [1]; against CDK4/Cyclin D1; in the assay on MOLM13 cells) were 73.7 nM, 257 nM and greater than 3000 nM, respectively.

Turning to `C[C@H]1CC[C@H](n2c3cnccc3c3cnc(Nc4cc5c(cn4)CCN(CCO)C5)nc32)CC1` [Example 12, 2-(7-((9-((1r,4r)-4-Methylcyclohexyl)-9H-pyrido[4′,3′:4,5]pyrrolo[2,3-d]pyrimidin-2-yl)amino)-3,4-dihydro-2,6-naphthyridin-2(1H)-yl)ethanol], the IC50 in assay [1] was 2.7 nM; at CDK4/Cyclin D1, 18.4 nM; with MOLM13 cells, 10.8 nM.

As for `CC1CNCc2ccc(Nc3ncc4c5ccncc5n([C@H]5CC[C@H](C)CC5)c4n3)nc21` (stereo partly drawn) [Example 13, N-(8-Methyl-5,6,7,8-tetrahydro-1,6-naphthyridin-2-yl)-9-((1r,4r)-4-methylcyclohexyl)-9H-pyrido[4′,3′:4,5]pyrrolo[2,3-d]pyrimidin-2-amine], the IC50 in assay [1] worked out at 1.8 nM; at CDK4/Cyclin D1, 31.3 nM; with MOLM13 cells, 54.5 nM.

Take `CC(=O)N1Cc2ccc(Nc3ncc4c5ccncc5n([C@H]5CC[C@H](C)CC5)c4n3)nc2C(C)C1` (stereo partly drawn) [Example 14, 1-(8-Methyl-2-((9-((1r,4r)-4-methylcyclohexyl)-9H-pyrido[4′,3′:4,5]pyrrolo[2,3-d]pyrimidin-2-yl)amino)-7,8-dihydro-1,6-naphthyridin-6(5H)-yl)ethanone]: the values for the IC50 (in assay [1]; against CDK4/Cyclin D1; in the assay on MOLM13 cells) were 3.2 nM, 4.4 nM and 10.6 nM, respectively.

Regarding `CC1CN(CCO)Cc2ccc(Nc3ncc4c5ccncc5n([C@H]5CC[C@H](C)CC5)c4n3)nc21` (stereo partly drawn) [Example 15, 2-(8-Methyl-2-((9-((1r,4r)-4-methylcyclohexyl)-9H-pyrido[4′,3′:4,5]pyrrolo[2,3-d]pyrimidin-2-yl)amino)-7,8-dihydro-1,6-naphthyridin-6(5H)-yl)ethanol], the results for the IC50 (in assay [1]; on CDK4/Cyclin D1; in the assay on MOLM13 cells) were 3.1 nM, 20.3 nM and 29.5 nM, respectively.

On to `C[C@H]1CC[C@H](n2c3cnccc3c3cnc(Nc4ccc5c(n4)C(O)CNC5)nc32)CC1` (stereo partly drawn) [Example 16, 2-((9-((1r,4r)-4-Methylcyclohexyl)-9H-pyrido[4′,3′:4,5]pyrrolo[2,3-d]pyrimidin-2-yl)amino)-5,6,7,8-tetrahydro-1,6-naphthyridin-8-ol], for which the half-maximal inhibitory concentration (IC50) in assay [1] was found to be 1.4 nM; at CDK4/Cyclin D1 it was 16.5 nM; in the assay on MOLM13 cells it was 23.9 nM.

`COc1cc2c3cnc(Nc4ccc5c(n4)CCNC5)nc3n([C@H]3CC[C@H](C)CC3)c2cn1` [Example 19, 6-Methoxy-9-((1r,4r)-4-methylcyclohexyl)-N-(5,6,7,8-tetrahydro-1,6-naphthyridin-2-yl)-9H-pyrido[4′,3′:4,5]pyrrolo[2,3-d]pyrimidin-2-amine]: the results for the IC50 (in assay [1]; at CDK4/Cyclin D1; in the assay on MOLM13 cells) were 33 nM, 1790 nM and 204 nM, respectively.

Regarding `COc1cc2c3cnc(Nc4ccc5c(n4)CCN(C(=O)CO)C5)nc3n([C@H]3CC[C@H](C)CC3)c2cn1` [Example 20, 2-Hydroxy-1-(2-((6-methoxy-9-((1r,4r)-4-methylcyclohexyl)-9H-pyrido[4′,3′:4,5]-pyrrolo[2,3-d]pyrimidin-2-yl)amino)-7,8-dihydro-1,6-naphthyridin-6(5H)-yl)ethanone], the IC50 in assay [1] was 144 nM; at CDK4/Cyclin D1, 847 nM; with MOLM13 cells, 208 nM.

In the case of `O=C(CO)N1CCc2nc(Nc3ncc4c5ccncc5n(C5CCCC5)c4n3)ccc2C1` [Example 22, 1-(2-((9-Cyclopentyl-9H-pyrido[4′,3′:4,5]pyrrolo[2,3-d]pyrimidin-2-yl)amino)-7,8-dihydro-1,6-naphthyridin-6(5H)-yl)-2-hydroxyethanone], the IC50 worked out at 0.65 nM in assay [1], 36 nM against CDK4/Cyclin D1 and 5.2 nM in the assay on MOLM13 cells.
